These molecules were tested against T1, Human FGFR2 wildtype (Homo sapiens, UniProt P21802) (assay: FGFR2 wildtype kinase assay (Reaction Biology HotSpot)). Conditions: ATP at Km; read-out: FGFR2 (WT) Km IC50.
T1 construct: purchased Reaction Biology Corporation (contract assay; enzyme is the CRO's own)
Type: biochemical
Procedure: (§1) Biochemical assays were run at Reaction Biology (Reaction Biology Corporation, 1 Great Valley Parkway, Suite 2, Malvern, Pa. 19355, USA). The Reaction Biology (http://www.reactionbiology.com) HotSpot assay platform was used to measure kinase/inhibitor interactions as described previously (Anastassiadis et al., 2011). In brief, for each reaction, kinase and substrate were mixed in a buffer containing 20 mM HEPES (pH 7.5), 10 mM MgCl2, 1 mM EGTA, 0.02% Brij35, 0.02 mg/mL BSA, 0.1 mM Na3VO4, 2 mM DTT, and 1% DMSO. All compounds were in powder form and freshly solubilized in DMSO for assays. Compounds were then added to each reaction mixture via acoustic dispensing using an ECHO 550 nanoliter dispenser. For Human FGFR2 wildtype testing, a peptide substrate, poly[Glu:Tyr] (4:1) was used to promote the reaction at a concentration of 0.2 mg/ml, with a final ATP concentration as determined by Reaction Biology. For Human FGFR2 (V565F) testing, a peptide substrate, poly[Glu:Tyr] (4:1) was used to promote the reaction at a concentration of 0.2 mg/ml, with a final ATP concentration as determined by Reaction Biology. Compounds were tested in 10-dose IC50 mode with a 3-fold serial dilution. After a 20-min incubation, ATP (Sigma-Aldrich, St. Louis, Mo. 63178) and [g33P] ATP (specific activity 10 microCi/microliter) purchased at PerkinElmer (Boston, Mass., 02118 Cat #BLU 003H250UC) were added at a final total concentration of 10 mM. Reactions were carried out at room temperature for 2 hr and spotted onto P81 ion exchange cellulose chromatography paper (Reaction Biology). Filter paper was washed in 0.75% phosphoric acid to remove unincorporated ATP. The percent remaining kinase activity relative to a vehicle-containing (DMSO) kinase reaction was calculated for each kinase/inhibitor pair. IC50 values were calculated using Prism 5 (GraphPad).

T1 sequence (P21802 22-821): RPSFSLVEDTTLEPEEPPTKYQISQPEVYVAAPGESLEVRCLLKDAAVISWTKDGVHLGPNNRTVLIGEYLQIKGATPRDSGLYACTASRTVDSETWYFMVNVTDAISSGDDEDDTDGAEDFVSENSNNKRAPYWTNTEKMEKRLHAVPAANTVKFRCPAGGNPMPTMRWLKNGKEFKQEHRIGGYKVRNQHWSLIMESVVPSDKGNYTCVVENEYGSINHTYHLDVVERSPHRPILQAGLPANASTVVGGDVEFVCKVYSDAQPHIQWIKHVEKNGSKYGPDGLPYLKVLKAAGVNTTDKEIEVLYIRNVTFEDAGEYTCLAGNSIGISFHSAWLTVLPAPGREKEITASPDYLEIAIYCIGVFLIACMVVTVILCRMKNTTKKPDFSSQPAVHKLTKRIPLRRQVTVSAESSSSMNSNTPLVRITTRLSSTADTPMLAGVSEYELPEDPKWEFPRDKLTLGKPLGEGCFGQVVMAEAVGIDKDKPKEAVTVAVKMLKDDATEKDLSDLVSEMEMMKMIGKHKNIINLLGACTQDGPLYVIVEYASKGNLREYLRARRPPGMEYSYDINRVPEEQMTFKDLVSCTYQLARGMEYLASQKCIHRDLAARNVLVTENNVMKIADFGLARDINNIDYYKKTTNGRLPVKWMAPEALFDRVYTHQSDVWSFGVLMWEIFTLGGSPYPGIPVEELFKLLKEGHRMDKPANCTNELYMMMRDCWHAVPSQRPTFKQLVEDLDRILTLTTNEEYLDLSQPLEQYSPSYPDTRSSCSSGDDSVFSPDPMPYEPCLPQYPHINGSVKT

IC50	SMILES
≤ 10 nM	C=CC(=O)N1C[C@H](c2cc(C#Cc3cc(OC)cc(OC)c3)c3c(N)ncnn23)C[C@@H]1COC (single isomer, unassigned) [Chemical Synthesis Example 2]
≤ 10 nM	C=CC(=O)N1CC(c2cc(C#Cc3c(F)c(OC)cc(OC)c3F)c3c(N)ncnn23)C[C@@H]1COC (single isomer, unassigned) [Chemical Synthesis Example 4]
≤ 10 nM	C=CC(=O)N1CC(c2cc(C#Cc3cc(OC)cc(OC)c3F)c3c(N)ncnn23)C[C@@H]1COC (single isomer, unassigned) [Chemical Synthesis Example 6]

These molecules were tested against T2, Human FGFR2 (V565F) (Homo sapiens, UniProt P21802, V564F) (assay: FGFR2 V565F mutation kinase assay (Reaction Biology HotSpot)). Conditions: 100 uM ATP.
T2 construct: purchased Reaction Biology Corporation (contract assay; enzyme is the CRO's own)
Type: biochemical
Procedure: as §1, with “ATP (specific activity 10 microCi/microliter) purchased at PerkinElmer (Boston, Mass., 02118 Cat #BLU 003H250UC) were added at a final total concentration of 10 mM.” left out

T2 sequence (P21802 22-822 isoform P21802-3 V565F limits assumed): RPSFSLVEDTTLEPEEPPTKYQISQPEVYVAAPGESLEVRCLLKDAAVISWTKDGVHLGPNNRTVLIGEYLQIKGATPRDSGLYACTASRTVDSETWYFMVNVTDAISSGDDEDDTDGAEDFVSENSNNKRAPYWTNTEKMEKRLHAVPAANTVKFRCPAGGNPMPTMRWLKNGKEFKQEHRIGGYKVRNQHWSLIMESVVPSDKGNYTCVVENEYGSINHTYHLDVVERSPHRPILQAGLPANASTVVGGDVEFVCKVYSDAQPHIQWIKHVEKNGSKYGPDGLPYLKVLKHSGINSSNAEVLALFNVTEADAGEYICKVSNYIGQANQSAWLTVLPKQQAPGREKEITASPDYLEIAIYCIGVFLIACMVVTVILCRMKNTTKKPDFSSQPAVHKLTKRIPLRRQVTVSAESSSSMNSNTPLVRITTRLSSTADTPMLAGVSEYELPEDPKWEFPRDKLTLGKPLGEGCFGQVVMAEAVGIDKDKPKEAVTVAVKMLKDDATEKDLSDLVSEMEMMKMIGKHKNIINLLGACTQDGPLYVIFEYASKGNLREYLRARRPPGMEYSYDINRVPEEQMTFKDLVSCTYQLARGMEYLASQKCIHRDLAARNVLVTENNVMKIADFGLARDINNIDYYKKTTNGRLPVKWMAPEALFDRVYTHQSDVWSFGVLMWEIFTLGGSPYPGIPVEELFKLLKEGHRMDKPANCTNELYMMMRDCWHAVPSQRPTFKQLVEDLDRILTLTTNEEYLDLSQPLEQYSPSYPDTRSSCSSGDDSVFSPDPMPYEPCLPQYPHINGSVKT

IC50	SMILES
10 to 100 nM	C=CC(=O)N1C[C@H](c2cc(C#Cc3cc(OC)cc(OC)c3)c3c(N)ncnn23)C[C@@H]1COC (single isomer, unassigned) [Chemical Synthesis Example 2]
≤ 10 nM	C=CC(=O)N1CC(c2cc(C#Cc3c(F)c(OC)cc(OC)c3F)c3c(N)ncnn23)C[C@@H]1COC (single isomer, unassigned) [Chemical Synthesis Example 4]
10 to 100 nM	C=CC(=O)N1CC(c2cc(C#Cc3cc(OC)cc(OC)c3F)c3c(N)ncnn23)C[C@@H]1COC (single isomer, unassigned) [Chemical Synthesis Example 6]

The molecules below were run on SNU-16 cells (assay: SNU-16 cell-based viability assay (CellTiter-Glo)). Conditions: Homo sapiens, cells exposed to compound for 2 hours, washed, read after 72 hour incubation, read-out: SNU-16 IC50 (nM) 2 h.
Description: For determining the covalent nature of compounds, a simple cell-based assay was employed. SNU-16 cells were obtained from ATCC (Cat #CRL-5974; American Type Culture Collection; Manassas, Va. 20110) for this assay. SNU-16 is a cultured line derived in 1987 by J. Park and associates from ascites of a patient with poorly differentiated gastric carcinoma of the stomach, and cells were collected from the patient prior to chemotherapy. The cells express the surface glycoproteins carcinoembryonic antigen (CEA) and TAG-72. No evidence of amplification or rearrangements has been noted in the N-myc, L-myc, myb and EGF receptor genes, although the c-myc proto-oncogene is amplified. There was no expression of the following genes: N-myc, L-myc, c-cis, IGF-2, or gastrin releasing peptide. These cells are known to have an FGFR2 amplification and are therefore relevant for the compound testing at hand (1). For this assay, cells were plated on poly-D-lysine to maintain attachment. Cells were either exposed to compound for 2 hours or 72 hours to test the ability of the compound to stay on target after binding. Briefly, 80 μL cell solution containing 5000 SNU-16 cells was plated per well into 96-well Poly-D-Lysine Cellware plate and incubated in 37° C. incubator overnight to facilitate adherence. Compounds were solubilized fresh from powder as dimethylsulfoxide stocks (DMSO), and plated as half log, 9 point dilutions in DMSO and then plated into cell media containing RPMI1640+10% FBS for ease of transfer without disrupting cells. Total volume in cells was 100 uL. For cells exposed to compound for two hours, cells were incubated in 37° C. incubator for 2 hours, upon which time plates were removed and cells were centrifuged at 1500 rpm for 5 min, followed by removal of all supernatant, and the re-dispense 100 μL of RPMI1640+10% FBS per well. This was repeated twice. Plates were put back into the incubator for 72 hours. For cells exposed to compound for 72 hours, plates were removed from the incubator for the time of washing but not disturbed, and then placed back in the incubator without washing. Assay plates were read for total ATP by luminescent CTG signal at the end of the 72 hour incubation by adding 100 μL of CTG (Cell TiterGlo: Cat #G9241; Promega Corporation, Madison, Wis., 53711) per well, followed by gently agitating the contents for 2 min on the plate shaker, and incubating the plates for 10 min at room temperature in dark. […] Clin Cancer Res 2010; 16:5750-8.

IC50	SMILES
≤ 10 nM	C=CC(=O)N1CC(c2cc(C#Cc3c(F)c(OC)cc(OC)c3F)c3c(N)ncnn23)C[C@@H]1COC (single isomer, unassigned) [Chemical Synthesis Example 4]
1000 to 10000 nM	C=CC(=O)N1CC(c2cc(C#Cc3cc(OC)cc(OC)c3F)c3c(N)ncnn23)C[C@@H]1COC (single isomer, unassigned) [Chemical Synthesis Example 5]
1000 to 10000 nM	C=CC(=O)N1CC(c2cc(C#Cc3c(F)c(OC)cc(OC)c3F)c3c(N)ncnn23)C[C@@H]1COC (single isomer, unassigned) [Chemical Synthesis Example 3]

Continued, molecule first:

SMILES	IC50
C=CC(=O)N1C[C@H](c2cc(C#Cc3cc(OC)cc(OC)c3)c3c(N)ncnn23)C[C@@H]1COC (single isomer, unassigned) [Chemical Synthesis Example 2]	≤ 10 nM
C=CC(=O)N1CC(c2cc(C#Cc3cc(OC)cc(OC)c3F)c3c(N)ncnn23)C[C@@H]1COC (single isomer, unassigned) [Chemical Synthesis Example 6]	≤ 10 nM
C=CC(=O)N1C[C@@H](c2cc(C#Cc3cc(OC)cc(OC)c3)c3c(N)ncnn23)C[C@@H]1COC (single isomer, unassigned) [Chemical Synthesis Example 1]	1000 to 10000 nM

Same assay, conditions: Homo sapiens, cells exposed to compound for 72 hours, no washing, read-out: SNU-16 IC50 (nM) 72 h

IC50	SMILES
≤ 10 nM	C=CC(=O)N1CC(c2cc(C#Cc3c(F)c(OC)cc(OC)c3F)c3c(N)ncnn23)C[C@@H]1COC (single isomer, unassigned) [Chemical Synthesis Example 4]
100 to 1000 nM	C=CC(=O)N1CC(c2cc(C#Cc3cc(OC)cc(OC)c3F)c3c(N)ncnn23)C[C@@H]1COC (single isomer, unassigned) [Chemical Synthesis Example 5]
100 to 1000 nM	C=CC(=O)N1CC(c2cc(C#Cc3c(F)c(OC)cc(OC)c3F)c3c(N)ncnn23)C[C@@H]1COC (single isomer, unassigned) [Chemical Synthesis Example 3]

Second part, the molecule before the results:

SMILES	IC50
C=CC(=O)N1C[C@H](c2cc(C#Cc3cc(OC)cc(OC)c3)c3c(N)ncnn23)C[C@@H]1COC (single isomer, unassigned) [Chemical Synthesis Example 2]	≤ 10 nM
C=CC(=O)N1CC(c2cc(C#Cc3cc(OC)cc(OC)c3F)c3c(N)ncnn23)C[C@@H]1COC (single isomer, unassigned) [Chemical Synthesis Example 6]	≤ 10 nM
C=CC(=O)N1C[C@@H](c2cc(C#Cc3cc(OC)cc(OC)c3)c3c(N)ncnn23)C[C@@H]1COC (single isomer, unassigned) [Chemical Synthesis Example 1]	10 to 100 nM

Reference: US20230174535A1, “INHIBITORS OF FIBROBLAST GROWTH FACTOR RECEPTOR KINASES” (Kinnate Biopharma Inc., priority 2019, published 2023)
